Data published in the supplement of paper PMC11451515.

System: SEM cells
Experiment: cell viability relative to DMSO control; higher = less cytotoxic
Details: 48 h
How it was run: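 Library compounds in DMSO were pin-dosed into 1536-well plates (5 μl) holding NOMO1 or SEM (500 cells/well) or P12-Ichikawa (1000 cells/well) leukemia cells, across an 11-point threefold series of 47 μM to 0.79 nM. Each cell line had been adapted for at least four passages in each medium. CellTiter-Glo One luminescence was read after 48 h at 37°C. Viability is the per-plate percentage relative to DMSO wells, with cell-free wells as background.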

[1] = HPLM + 10% dialyzed FBS, 0.000781 µM
[2] = HPLM + 10% dialyzed FBS, 0.00234 µM
[3] = HPLM + 10% dialyzed FBS, 0.00702 µM
[4] = HPLM + 10% dialyzed FBS, 0.0211 µM
[5] = HPLM + 10% dialyzed FBS, 0.0632 µM
[6] = HPLM + 10% dialyzed FBS, 0.19 µM
[7] = HPLM + 10% dialyzed FBS, 0.569 µM
[8] = HPLM + 10% dialyzed FBS, 1.71 µM
[9] = HPLM + 10% dialyzed FBS, 5.12 µM
[10] = HPLM + 10% dialyzed FBS, 15.4 µM
[11] = HPLM + 10% dialyzed FBS, 46.1 µM
[12] = RPMI 5 mM glucose + 10% FBS, 0.000781 µM
[13] = RPMI 5 mM glucose + 10% FBS, 0.00234 µM
[14] = RPMI 5 mM glucose + 10% FBS, 0.00702 µM
[15] = RPMI 5 mM glucose + 10% FBS, 0.0211 µM
[16] = RPMI 5 mM glucose + 10% FBS, 0.0632 µM
[17] = RPMI 5 mM glucose + 10% FBS, 0.19 µM
[18] = RPMI 5 mM glucose + 10% FBS, 0.569 µM
[19] = RPMI 5 mM glucose + 10% FBS, 1.71 µM
[20] = RPMI 5 mM glucose + 10% FBS, 5.12 µM
[21] = RPMI 5 mM glucose + 10% FBS, 15.4 µM
[22] = RPMI 5 mM glucose + 10% FBS, 46.1 µM
[23] = RPMI 5 mM glucose + 10% dialyzed FBS, 0.000781 µM
[24] = RPMI 5 mM glucose + 10% dialyzed FBS, 0.00234 µM
[25] = RPMI 5 mM glucose + 10% dialyzed FBS, 0.00702 µM
[26] = RPMI 5 mM glucose + 10% dialyzed FBS, 0.0211 µM
[27] = RPMI 5 mM glucose + 10% dialyzed FBS, 0.0632 µM
[28] = RPMI 5 mM glucose + 10% dialyzed FBS, 0.19 µM
[29] = RPMI 5 mM glucose + 10% dialyzed FBS, 0.569 µM
[30] = RPMI 5 mM glucose + 10% dialyzed FBS, 1.71 µM
[31] = RPMI 5 mM glucose + 10% dialyzed FBS, 5.12 µM
[32] = RPMI 5 mM glucose + 10% dialyzed FBS, 15.4 µM
[33] = RPMI 5 mM glucose + 10% dialyzed FBS, 46.1 µM

Work on `COc1cc2ncnc(Nc3ccc(F)c(Cl)c3)c2cc1NC(=O)/C=C/CN1CCCCC1` yielded a cell viability [1] of 94.2%, a cell viability [2] of 112% and a cell viability [3] of 110%. It also gave a cell viability [4] of 102%, a cell viability [5] of 105% and a cell viability [6] of 99.1%. It also gave a cell viability [7] of 94.6%, a cell viability [8] of 85.5% and a cell viability [9] of 76.7%. It also gave a cell viability [10] of 71.4%, a cell viability [11] of 42.4% and a cell viability [12] of 119%. The cell viability [13] was 129%, the cell viability [14] was 120% and the cell viability [15] was 119%. It also gave a cell viability [16] of 122%, a cell viability [17] of 117% and a cell viability [18] of 124%. The cell viability [19] was 91.3%, the cell viability [20] was 88.6% and the cell viability [21] was 80.2%. For the same compound, the cell viability [22] was 42.3%, the cell viability [23] was 97.9% and the cell viability [24] was 85.6%. It also gave a cell viability [25] of 96.4%, a cell viability [26] of 116% and a cell viability [27] of 93.3%. It also gave a cell viability [28] of 87%, a cell viability [29] of 104% and a cell viability [30] of 76.6%. It also gave a cell viability [31] of 77.6%, a cell viability [32] of 66.7% and a cell viability [33] of 41.3%.
For `CC(C)C[C@H](NC(=O)[C@H](CCc1ccccc1)NC(=O)CN1CCOCC1)C(=O)N[C@@H](Cc1ccccc1)C(=O)N[C@@H](CC(C)C)C(=O)[C@@]1(C)CO1`, the cell viability [1] was 84.6%, the cell viability [2] was 86.5% and the cell viability [3] was 100%. For the same compound, the cell viability [4] was 8.14%, the cell viability [5] was 7.13% and the cell viability [6] was 7.08%. It also gave a cell viability [7] of 6.63%, a cell viability [8] of 5.14% and a cell viability [9] of 4.16%. The cell viability [10] was 1.67%, the cell viability [11] was 1.47% and the cell viability [12] was 97.5%. The cell viability [13] was 102%, the cell viability [14] was 65.7% and the cell viability [15] was 8.2%. For the same compound, the cell viability [16] was 7.68%, the cell viability [17] was 6.95% and the cell viability [18] was 7.46%. For the same compound, the cell viability [19] was 4.9%, the cell viability [20] was 2.81% and the cell viability [21] was 1.52%. It also gave a cell viability [22] of 1.37%, a cell viability [23] of 72.1% and a cell viability [24] of 81.7%. For the same compound, the cell viability [25] was 80.6%, the cell viability [26] was 8.46% and the cell viability [27] was 7.46%. For the same compound, the cell viability [28] was 7.29%, the cell viability [29] was 6.73% and the cell viability [30] was 4.71%. It also gave a cell viability [31] of 3.02%, a cell viability [32] of 1.73% and a cell viability [33] of 1.54%.
In the case of `Cc1ccc([S+](=O)([O-])N[C@@H](Cc2ccccc2)C(=O)CCl)cc1`, the cell viability [1] is reported as 91%, the cell viability [2] is reported as 58.6% and the cell viability [3] is reported as 93.2%. It also gave a cell viability [4] of 93.3%, a cell viability [5] of 93% and a cell viability [6] of 105%. For the same compound, the cell viability [7] was 96.4%, the cell viability [8] was 109% and the cell viability [9] was 103%. The cell viability [10] was 85.5%, the cell viability [11] was 25.3% and the cell viability [12] was 87.4%. The cell viability [13] was 53.1%, the cell viability [14] was 94% and the cell viability [15] was 97%. For the same compound, the cell viability [16] was 95.8%, the cell viability [17] was 114% and the cell viability [18] was 95.6%. For the same compound, the cell viability [19] was 108%, the cell viability [20] was 104% and the cell viability [21] was 87%. For the same compound, the cell viability [22] was 22.1%, the cell viability [23] was 80.5% and the cell viability [24] was 49.8%. For the same compound, the cell viability [25] was 100%, the cell viability [26] was 104% and the cell viability [27] was 88.6%. The cell viability [28] was 95.4%, the cell viability [29] was 93.6% and the cell viability [30] was 107%. For the same compound, the cell viability [31] was 100%, the cell viability [32] was 94.3% and the cell viability [33] was 23.4%.
`Nc1ncnc2c1c(-c1cnc3[nH]ccc3c1)nn2C1CCCC1` was tested, and the cell viability [1] was 111%, the cell viability [2] was 113% and the cell viability [3] was 127%. The cell viability [4] was 122%, the cell viability [5] was 113% and the cell viability [6] was 105%. The cell viability [7] was 95.2%, the cell viability [8] was 69.6% and the cell viability [9] was 51.1%. For the same compound, the cell viability [10] was 36.2%, the cell viability [11] was 11% and the cell viability [12] was 81.9%. For the same compound, the cell viability [13] was 76.3%, the cell viability [14] was 85.1% and the cell viability [15] was 95.4%. The cell viability [16] was 94.8%, the cell viability [17] was 73.6% and the cell viability [18] was 68.8%. The cell viability [19] was 49.2%, the cell viability [20] was 33.8% and the cell viability [21] was 24.7%. For the same compound, the cell viability [22] was 6.03%, the cell viability [23] was 123% and the cell viability [24] was 120%. It also gave a cell viability [25] of 125%, a cell viability [26] of 114% and a cell viability [27] of 129%. It also gave a cell viability [28] of 112%, a cell viability [29] of 99.6% and a cell viability [30] of 73.8%. It also gave a cell viability [31] of 59.5%, a cell viability [32] of 42.6% and a cell viability [33] of 6.97%.
With `CC(C)NC[C@@H](C(=O)N1CCN(c2ncnc3c2[C@H](C)C[C@H]3O)CC1)c1ccc(Cl)cc1` the cell viability [1] was 113%, the cell viability [2] was 103% and the cell viability [3] was 115%. For the same compound, the cell viability [4] was 89.3%, the cell viability [5] was 87.6% and the cell viability [6] was 63.6%. The cell viability [7] was 36.9%, the cell viability [8] was 23.1% and the cell viability [9] was 12.1%. It also gave a cell viability [10] of 9.57%, a cell viability [11] of 1.69% and a cell viability [12] of 103%. It also gave a cell viability [13] of 112%, a cell viability [14] of 127% and a cell viability [15] of 101%. It also gave a cell viability [16] of 74.3%, a cell viability [17] of 61.3% and a cell viability [18] of 36.9%. It also gave a cell viability [19] of 32.5%, a cell viability [20] of 13.8% and a cell viability [21] of 5.24%. It also gave a cell viability [22] of 1.73%, a cell viability [23] of 117% and a cell viability [24] of 90.3%. The cell viability [25] was 93%, the cell viability [26] was 79.4% and the cell viability [27] was 93.2%. It also gave a cell viability [28] of 48.5%, a cell viability [29] of 34.9% and a cell viability [30] of 20.5%. The cell viability [31] was 9.56%, the cell viability [32] was 4.26% and the cell viability [33] was 2.07%.
